Laboratory results reported in article PMC9964544, “Evidence of Insulin-Sensitizing and Mimetic Activity of the Sesquiterpene Quinone Avarone, a Protein Tyrosine Phosphatase 1B and Aldose Reductase Dual Targeting Agent from the Marine Sponge Dysidea avara” (Pharmaceutics, 2023).

What was measured:
[1] = tested on: C2C12 cells; assay: Akt phosphorylation in C2C12 cells by Western blot; type: cell-based; conditions: 30 min, serum-starved C2C12
Procedure: To evaluate the impact of avarone (2) on the insulin signaling pathway, C2C12 cells were plated on P35 dishes and grown until 70% confluence. Then, cells were washed with phosphate-buffered saline (PBS) and incubated for 24 h in the presence of a starvation medium (DMEM high glucose containing 2 mM glutamine, 100 U/mL of penicillin, and 100 μg/mL of streptomycin). After this time, cells were stimulated for 30 min with 10 nM insulin (Humulin R, Ely Lilly, Italy) with avarone (2) or the insulin-avarone combination. […] Phosphorylation levels of the insulin receptor β chain and of the kinase Akt were evaluated using specific antibodies: IR β subunit, clone CT-3 (MABS65) was from Santa Cruz Biotechnology (Santa Cruz, CA, USA); pIR β subunit, Y1162/1163 (sc-25103-R) was from Merck-Millipore (Burlington, MA, USA). […] Quantitation of the images obtained was carried out using iBright Analysis Software (Thermo Fisher Scientific 168 Third Avenue Waltham, MA, USA, 02451). Glucose uptake was evaluated as previously described. […] Intrinsic and 2-NBDG-derived cell fluorescences were determined using a flow cytometer (FACSCanto II, BD Biosciences, San Jose, CA, USA). […] Quantitative analysis was carried out using FlowJo software (FlowJo^TM v10. BD FlowJo™ Software for Windows Version 10. Ashland, OR: Becton, Dickinson and Company; 2021). […]

[2] = tested on: human microvascular endothelial cells (HMEC-1); design: method as in PMID 32075136; conditions: ref [19]; read-out: IC50 cytotoxicity HMEC-1; cited from earlier work

SMILES: CC1=CCC[C@H]2[C@](C)(CC3=CC(=O)C=CC3=O)[C@@H](C)CC[C@]12C [avarone (2), avarone]
- Akt phosphorylation levels, insulin-avarone combination ([1]; 25 µM avarone + 10 nM insulin): values higher than those observed after treatment with insulin alone
- Akt phosphorylation levels ([1]; 25 µM avarone alone): increase in Akt phosphorylation levels similar to that induced by insulin
- IC50 [2]: 62.2 µM
